Data on 13 compounds can be found in ChEMBL document CHEMBL4665680, “Drug Induced Liver Injury (DILI). Mechanisms and Medicinal Chemistry Avoidance/Mitigation Strategies” (J Med Chem, 2020).

SMILES strings stand for the structures.

A short description of the series: Toxicity in po dosed human assessed as maximum daily dose. Format: organism-based. The following applies: in vivo.
Take `CC(C)(C)NC(=O)[C@@H]1C[C@@H]2CCCC[C@@H]2CN1C[C@@H](O)[C@H](Cc1ccccc1)NC(=O)[C@H](CC(N)=O)NC(=O)c1ccc2ccccc2n1`: the Activity turned out to be 2000 mg. The value for `CCCN(CCC)C(=O)Cc1c(-c2ccc(Cl)cc2)nc2ccc(Cl)cn12` [ALPIDEM] was 150 mg.

Regarding `COc1ccc(Cl)cc1C(=O)NCCc1ccc(S(=O)(=O)NC(=O)NC2CCCCC2)cc1` [GLYBURIDE], the Activity was determined as 20 mg. Regarding `CCCCC1=NC2(CCCC2)C(=O)N1Cc1ccc(-c2ccccc2-c2nnn[nH]2)cc1` [IRBESARTAN], the Activity was 300 mg. As for `CC(=O)N1CCN(c2ccc(OCC3COC(Cn4ccnc4)(c4ccc(Cl)cc4Cl)O3)cc2)CC1` (stereo not drawn) [KETOCONAZOLE], the Activity is listed as 400 mg. For `CS(=O)(=O)CCNCc1ccc(-c2ccc3ncnc(Nc4ccc(OCc5cccc(F)c5)c(Cl)c4)c3c2)o1` [LAPATINIB], the Activity is reported as 1500 mg.

As for `CCCCc1nc(Cl)c(CO)n1Cc1ccc(-c2ccccc2-c2nn[nH]n2)cc1` [LOSARTAN], the Activity is given as 100 mg. The value for `CCc1nn(CCCN2CCN(c3cccc(Cl)c3)CC2)c(=O)n1CCOc1ccccc1` [NEFAZODONE] was 600 mg. As to `COC(=O)C1=C(C)NC(C)=C(C(=O)OCCN(C)Cc2ccccc2)C1c1cccc([N+](=O)[O-])c1` (stereo not drawn) [NICARDIPINE], the Activity worked out at 120 mg. To `CCc1ccc(CCOc2ccc(CC3SC(=O)NC3=O)cc2)nc1` (stereo not drawn) [PIOGLITAZONE] belongs 45 mg; to `COC(=O)[C@H]1[C@H]2C[C@@H]3c4[nH]c5cc(OC)ccc5c4CCN3C[C@H]2C[C@@H](OC(=O)c2cc(OC)c(OC)c(OC)c2)[C@@H]1OC` [RESERPINE], 0.5 mg. To `CN(CCOc1ccc(CC2SC(=O)NC2=O)cc1)c1ccccn1` (stereo not drawn) [ROSIGLITAZONE] belongs 8 mg. Regarding `Cc1c(C)c2c(c(C)c1O)CCC(C)(COc1ccc(CC3SC(=O)NC3=O)cc1)O2` (stereo not drawn) [TROGLITAZONE], the Activity worked out at 600 mg.
